Molecules are shown by their SMILES.

The Tmax is the time from dosing to the highest level.

The format of this data set is in vivo, Sprague–Dawley (SD) rats. The settings on record: rat plasma, single oral gavage of 10 mL/kg ABS, n = 6.

Experimental: All rats underwent an acclimation period of a week and overnight fasting with free access to water only. Rats were randomly selected and administered the ABS (n = 6, biological replicates). Each rat was administered with a single ABS oral gavage dose of 10 mL/kg. Blood samples (approximately 150 μL) were collected from the orbital venous plexus using heparinized tubes at predefined time points (0, 0.033, 0.083, 0.167, 0.25, 0.5, 0.75, 1, 2, 4, 6, 8, 10, 12, 24, 36, 48, and 60 h) post-administration. The technical personnel were proficiently trained in performing orbital venous plexus blood draws, employing a technique designed to minimize discomfort to the animals. All rats received an intragastric administration of 1 mL saline at 6 h post-dosing, after which they were provided with unrestricted access to food and water for the remainder of the experimental period. […]
Chromatographic separation was performed on a Thermo BDS Hypersil C18 column (100 × 4.6 mm, 3 µm) with linear gradient elution at a flow rate of 0.7 mL/min using methanol and water both containing 0.1% acetic acid as the mobile phases A and B, respectively. […] The quantification analysis was conducted under multiple reaction monitoring mode with argon collision gas pressure set at 0.2 Pa for collision-induced dissociation. […]

Consider `Cc1cc(O)c2c(c1)C(=O)c1cc(O)cc(O)c1C2=O` [EM, emodin], for which the t1/2 is on record as 4.63 ± 1.53 h.

Consider `O=C1C[C@@H](c2ccc(O[C@@H]3O[C@H](CO)[C@@H](O)[C@H](O)[C@H]3O)cc2)Oc2cc(O)ccc21` [LI, liquiritin], for which the Tmax amounted to 0.20 ± 0.03 h.
